Data reported in ChEMBL document CHEMBL1145285, “Design and crystal structures of protein kinase B-selective inhibitors in complex with protein kinase A and mutants” (J Med Chem, 2005).

Key:
[1] = Inhibition protein kinase A
[2] = Inhibition of protein kinase AB (PKB amino acid substitutions); format: protein assay
[3] = target: cAMP-dependent protein kinase catalytic subunit alpha (Bos taurus) (UniProt P00517); assay: Binding constant for protein kinase AB3 (3 PKB amino acid substitutions)
[4] = target: cAMP-dependent protein kinase catalytic subunit alpha (Bos taurus) (UniProt P00517); assay: Binding constant for protein kinase AB5 (5 PKB amino acid substitutions)

IC50 [1]	IC50 [2]	Kd [3]	Kd [4]	Structure (SMILES)
1900 nM	20 nM	77 nM	8 nM	CC1(C)CCCN(c2ccc(O)c(C(=O)c3ccc(C(=O)N[C@@H]4CCCNC[C@H]4NC(=O)c4ccncc4)cc3)c2)C1.Cl.Cl.Cl
30 nM	23 nM	41 nM		CN(C)c1ccc(O)c(C(=O)c2ccc(C(=O)N[C@@H]3CCCNC[C@H]3NC(=O)c3ccncc3)cc2)c1.Cl.Cl.Cl

Further lines, the compound ahead of its results:

Structure (SMILES)	IC50 [1]	IC50 [2]	Kd [3]	Kd [4]
CC1(C)CCCNC1c1ccc(O)c(C(=O)c2ccc(C(=O)N[C@@H]3CCCNC[C@H]3NC(=O)c3ccncc3)cc2)c1F.Cl.Cl.Cl (stereo partly specified)	2400 nM	750 nM	3770 nM	260 nM
CC1(C)CCN(c2ccc(O)c(C(=O)c3ccc(C(=O)N[C@@H]4CCCNC[C@H]4NC(=O)c4ccncc4)cc3)c2)CC1.Cl.Cl.Cl		40 nM		
Cl.Cl.Cl.O=C(N[C@@H]1CCCNC[C@H]1NC(=O)c1ccncc1)c1ccc(C(=O)c2cc(N3CCCCC3)ccc2O)cc1	400 nM	20 nM	193 nM	9 nM
